Laboratory results: patent US20230105984A1, “COMPOSITIONS AND METHODS FOR THE TREATMENT OF LIVER DISEASES AND DISORDERS” (AXCELLA HEALTH INC., priority 2019, published 2023)
Several values for one entry are separate records, joined by “and”; a condition that tells them apart may be missing. Equal entries are not always repeated.

Tests used:
[1] = tested on: MCP1/CCL2 secretion; assay: MCP1/CCL2 secretion by primary human hepatocytes co-treated with sFA+TNF-α, ELISA after 24h; assay type: cell-based; design: Rx effect / Rx effect (MCP1): scale not given here; settings: for Rx effect: MCP1; for MCP1 level / MCP1 secretion compared to baseline (sFA+TNF-α): Results 1, donors 1 and 2, AA compositions at 20X; for MCP1 level / MCP1 secretion level compared to the baseline (sFA+TNF-α): Results 2, donor 2
Protocol: Hepatocyte lipotoxicity appears to be a central driver of hepatic cellular injury via oxidative stress and endoplasmic reticulum (ER) stress. The ability of amino acids combined to therapeutics agents (Rx) to influence steatosis (lipid accumulation) and inflammation in hepatocytes was assessed using human primary hepatocytes purchased from two sources: Lonza and Sekisui Xenotech. Primary hepatocytes from two healthy human donor were seeded on day 0 at density of 60000 cells in 96 well optical microplates (Thermofisher) in hepatocyte plating media (William's E medium (Gibco) supplemented with 10% heat-inactivated FBS (Atlanta Bio), 2mM Glutamax (Gibco), and 0.2% Primocin (InVivoGen) and incubated for 6 hours at 37° C., 5% CO2. After 6 hours, cells were washed twice and incubated overnight at 37° C., 5% CO2 in hepatocytes plating media. On day 1, cells were washed twice and incubated for 24h in Hepatocytes defined medium (Corning) supplemented with 2mM Glutamax (Gibco), and 1x Penicillin/Streptomycin in the same conditions described above. On day 2, cells were washed twice with DPBS 1X (Gibco) and maintained in amino acid-free WEM (US Biologicals) containing a defined custom amino acid concentration based on the mean physiological concentrations in blood. The values are published in the Human Metabolome Database (Wishart DS, Tzur D, Knox C, et al., HMDB: the Human Metabolome Database. Nucleic Acids Res. 2007 Jan; 35(Database issue):[…]-6. 17202168; which is hereby incorporated by reference in its entirety). […] Cells were maintained in this defined pretreatment media for 24 hours at 37° C., 5% CO2. […] After 24 hours incubation, media was removed for chemokine analysis (MCP1) and the same co treatment was reapplied for an additional 48 hours for a total of 72 hours. Human CCL2 (MCP-1) was measured by ELISA (Human […] DuoSet ELISA, R&D Systems) at 1/20 dilution in 1X Reagent Diluent (Reagent Ancillary Kit 2, R&D Systems). Lipid was normalized to the specific per well cell density determined by nuclei count.

[2] = tested on: human primary hepatocytes; assay: Intracellular lipid accumulation (steatosis) in primary human hepatocytes co-treated with sFA+TNF-α, LipidTOX fluorescence microscopy after 72h; assay type: cell-based; design: Rx effect (lipid): scale not given here; settings: for Rx effect (Lipid: total lipid area subtracted from baseline sFA+TNFa, normalized to nuclei count): 72 h; for Rx effect (lipid): donor 2
Protocol: Hepatocyte lipotoxicity appears to be a central driver of hepatic cellular injury via oxidative stress and endoplasmic reticulum (ER) stress. The ability of amino acids combined to therapeutics agents (Rx) to influence steatosis (lipid accumulation) and inflammation in hepatocytes was assessed using human primary hepatocytes purchased from two sources: Lonza and Sekisui Xenotech. […] After 6 hours, cells were washed twice and incubated overnight at 37° C., 5% CO2 in hepatocytes plating media. On day 1, cells were washed twice and incubated for 24h in Hepatocytes defined medium (Corning) supplemented with 2mM Glutamax (Gibco), and 1x Penicillin/Streptomycin in the same conditions described above. […] The values are published in the Human Metabolome Database (Wishart DS, Tzur D, Knox C, et al., HMDB: the Human Metabolome Database. Nucleic Acids Res. 2007 Jan; 35(Database issue):[…]-6. 17202168; which is hereby incorporated by reference in its entirety). […] After 24 hours incubation, media was removed for chemokine analysis (MCP1) and the same co treatment was reapplied for an additional 48 hours for a total of 72 hours. After 72 hours, cells were washed twice with PBS 1x (Gibco), fixed with 4% Paraformaldehyde, and washed twice with PBS 1x (100 ul). […] The LipidTOXTM neutral lipid stain has an extremely high affinity for neutral lipid droplets that was detected by fluorescence microscopy using a high content imager (Molecular Devices). Lipid was normalized to the specific per well cell density determined by nuclei count.

[3] = Results 1, donors 1 and 2, AA compositions at 20X

O=C(O)c1cc(F)c2nc(N3C4CC[C@H]3C[C@H](OCc3c(-c5ccccc5OC(F)(F)F)noc3C3CC3)C4)sc2c1 [Tropifexor, 2-[(3-endo)-3-[[5-cyclopropyl-3-[2-(trifluoromethoxy)phenyl]-4-isoxazolyl]methoxy]-8-azabicyclo[3.2.1]oct-8-yl]-4-fluoro-6-benzothiazolecarboxylic acid]
Rx effect ([1]; donor 1, Rx 0.063 µM): 0.956
Rx effect ([1]; donor 1, Rx 1.000 µM): 0.877
Rx effect ([1]; donor 1, Rx 4.000 µM): 0.658
Rx effect ([1]; donor 2, Rx 0.063 µM): -0.16
MCP1 level / MCP1 secretion compared to baseline (sFA+TNF-α) [1]: slight increase
Rx effect (Lipid: total lipid area subtracted from baseline sFA+TNFa, normalized to nuclei count) ([2]; Donor 1, Rx Conc. 0.063 µM): 0.169
Rx effect (Lipid: total lipid area subtracted from baseline sFA+TNFa, normalized to nuclei count) ([2]; Donor 1, Rx Conc. 1.000 µM): 0.185
Rx effect (Lipid: total lipid area subtracted from baseline sFA+TNFa, normalized to nuclei count) ([2]; Donor 1, Rx Conc. 4.000 µM): 0.214
Rx effect (Lipid: total lipid area subtracted from baseline sFA+TNFa, normalized to nuclei count) ([2]; Donor 2, Rx Conc. 0.063 µM): 0.132
Rx effect (Lipid: total lipid area subtracted from baseline sFA+TNFa, normalized to nuclei count) ([2]; Donor 2, Rx Conc. 1.000 µM): 0.083
Rx effect (Lipid: total lipid area subtracted from baseline sFA+TNFa, normalized to nuclei count) ([2]; Donor 2, Rx Conc. 4.000 µM): 0.049
lipid level compared to baseline (sFA+TNFa) [2, 3]: slight increase in lipid level

COc1ccccc1[C@H](Cn1c(=O)n(C(C)(C)C(=O)O)c(=O)c2c(C)c(-c3ncco3)sc21)OC1CCOCC1 [Firsocostat, (R)-2-(1-(2-(2-methoxyphenyl)-2-((tetrahydro-2H-pyran-4-yl)oxy)ethyl)-5-methyl-6-(oxazol-2-yl)-2,4-dioxo-1,4-dihydrothieno[2,3-d]pyrimidin-3(2H)-yl)-2-methylpropanoic acid]
Rx effect ([1]; donor 1, Rx 0.063 µM): -0.233
Rx effect ([1]; donor 1, Rx 1.000 µM): -0.827
Rx effect ([1]; donor 1, Rx 4.000 µM): -0.479
Rx effect ([1]; donor 2, Rx 0.063 µM): -0.319
Rx effect ([1]; donor 2, Rx 1.000 µM): -0.614
Rx effect ([1]; donor 2, Rx 4.000 µM): -0.775
MCP1 level / MCP1 secretion compared to baseline (sFA+TNF-α) [1]: slight reduction in MCP1 secretion
MCP1 level / MCP1 secretion level compared to the baseline (sFA+TNF-α) [1]: no change or a slight reduction in MCP1 secretion level
Rx effect (MCP1) ([1]; donor 2, Rx 0.0625 µM): -0.147
Rx effect (MCP1) ([1]; donor 2, Rx 1 µM): -0.682
Rx effect (MCP1) ([1]; donor 2, Rx 4 µM): -0.510
Rx effect (Lipid: total lipid area subtracted from baseline sFA+TNFa, normalized to nuclei count) ([2]; Donor 1, Rx Conc. 0.063 µM): -0.210
Rx effect (Lipid: total lipid area subtracted from baseline sFA+TNFa, normalized to nuclei count) ([2]; Donor 1, Rx Conc. 1.000 µM): -0.412
Rx effect (Lipid: total lipid area subtracted from baseline sFA+TNFa, normalized to nuclei count) ([2]; Donor 1, Rx Conc. 4.000 µM): -0.317
Rx effect (Lipid: total lipid area subtracted from baseline sFA+TNFa, normalized to nuclei count) ([2]; Donor 2, Rx Conc. 0.063 µM): -0.246
Rx effect (Lipid: total lipid area subtracted from baseline sFA+TNFa, normalized to nuclei count) ([2]; Donor 2, Rx Conc. 1.000 µM): -0.449
Rx effect (Lipid: total lipid area subtracted from baseline sFA+TNFa, normalized to nuclei count) ([2]; Donor 2, Rx Conc. 4.000 µM): -0.485
lipid level compared to baseline (sFA+TNFa) [2, 3]: slight reduction in lipid level
lipid level compared to baseline (sFA+TNFa) ([2]; Results 2, donor 2): slight reduction in lipid level
Rx effect (lipid) ([2]; Rx 0.0625 µM): -0.147
Rx effect (lipid) ([2]; Rx 1 µM): -0.404
Rx effect (lipid) ([2]; Rx 4 µM): -0.458

O=C(O)c1ccnc(N2CC(O)(c3ccc(OCc4c(-c5c(Cl)cccc5Cl)noc4C4CC4)cc3Cl)C2)c1 [Cilofexor, 2-(3-(2-chloro-4-((5-cyclopropyl-3-(2,6-dichlorophenyl)isoxazol-4-yl)methoxy)phenyl)-3-hydroxyazetidin-1-yl)isonicotinic acid]
Rx effect ([1]; donor 1, Rx 0.031 µM): -0.009
Rx effect ([1]; donor 1, Rx 0.125 µM): 0.582
Rx effect ([1]; donor 1, Rx 0.500 µM): 1.210
Rx effect ([1]; donor 1, Rx 2.000 µM): 1.898
Rx effect ([1]; donor 2, Rx 0.125 µM): 0.28
Rx effect ([1]; donor 2, Rx 0.500 µM): 0.47
Rx effect ([1]; donor 2, Rx 2.000 µM): 0.69 and 0.695
MCP1 level / MCP1 secretion compared to baseline (sFA+TNF-α) [1]: slight increase
MCP1 level / MCP1 secretion level compared to the baseline (sFA+TNF-α) [1]: no change or a slight increase in MCP1 secretion level
Rx effect (MCP1) ([1]; donor 2, Rx 0.0313 µM): -0.265
Rx effect (MCP1) ([1]; donor 2, Rx 0.125 µM): 0.229
Rx effect (MCP1) ([1]; donor 2, Rx 0.5 µM): 0.525
Rx effect (MCP1) ([1]; donor 2, Rx 2 µM): 0.301
Rx effect (Lipid: total lipid area subtracted from baseline sFA+TNFa, normalized to nuclei count) ([2]; Donor 1, Rx Conc. 0.031 µM): 0.019
Rx effect (Lipid: total lipid area subtracted from baseline sFA+TNFa, normalized to nuclei count) ([2]; Donor 1, Rx Conc. 0.125 µM): 0.072
Rx effect (Lipid: total lipid area subtracted from baseline sFA+TNFa, normalized to nuclei count) ([2]; Donor 1, Rx Conc. 0.500 µM): 0.027
Rx effect (Lipid: total lipid area subtracted from baseline sFA+TNFa, normalized to nuclei count) ([2]; Donor 1, Rx Conc. 2.000 µM): 0.195
Rx effect (Lipid: total lipid area subtracted from baseline sFA+TNFa, normalized to nuclei count) ([2]; Donor 2, Rx Conc. 0.031 µM): -0.049
Rx effect (Lipid: total lipid area subtracted from baseline sFA+TNFa, normalized to nuclei count) ([2]; Donor 2, Rx Conc. 0.125 µM): 0.031
Rx effect (Lipid: total lipid area subtracted from baseline sFA+TNFa, normalized to nuclei count) ([2]; Donor 2, Rx Conc. 0.500 µM): 0.104
Rx effect (Lipid: total lipid area subtracted from baseline sFA+TNFa, normalized to nuclei count) ([2]; Donor 2, Rx Conc. 2.000 µM): 0.050
lipid level compared to baseline (sFA+TNFa) [2, 3]: no changes
lipid level compared to baseline (sFA+TNFa) ([2]; Results 2, donor 2): no changes in lipid level
Rx effect (lipid) ([2]; Rx 0.0313 µM): -0.110
Rx effect (lipid) ([2]; Rx 0.125 µM): 0.001
Rx effect (lipid) ([2]; Rx 0.5 µM): 0.088
Rx effect (lipid) ([2]; Rx 2 µM): 0.080

Cc1cc(F)c(C(=O)Nc2cccc(-c3nncn3C(C)C)n2)cc1-n1cnc(C2CC2)c1 [Selonsertib, 5-(4-cyclopropyl-1H-imidazol-1-yl)-2-fluoro-N-(6-(4-isopropyl-4H-1,2,4-triazol-3-yl)pyridin-2-yl)-4-methylbenzamide]
Rx effect ([1]; donor 1, Rx 0.063 µM): -0.167
Rx effect ([1]; donor 1, Rx 1.000 µM): -0.503
Rx effect ([1]; donor 1, Rx 4.000 µM): -0.552
Rx effect ([1]; donor 2, Rx 0.063 µM): -0.306
Rx effect ([1]; donor 2, Rx 1.000 µM): -0.152
Rx effect ([1]; donor 2, Rx 4.000 µM): -0.462
MCP1 level / MCP1 secretion compared to baseline (sFA+TNF-α) [1]: slight reduction in MCP1 secretion
MCP1 level / MCP1 secretion level compared to the baseline (sFA+TNF-α) [1]: no change or a slight reduction in MCP1 secretion level
Rx effect (MCP1) ([1]; donor 2, Rx 0.0625 µM): 0.004
Rx effect (MCP1) ([1]; donor 2, Rx 1 µM): -0.411
Rx effect (MCP1) ([1]; donor 2, Rx 4 µM): -0.463
Rx effect (Lipid: total lipid area subtracted from baseline sFA+TNFa, normalized to nuclei count) ([2]; Donor 1, Rx Conc. 0.063 µM): -0.060
Rx effect (Lipid: total lipid area subtracted from baseline sFA+TNFa, normalized to nuclei count) ([2]; Donor 1, Rx Conc. 1.000 µM): -0.154
Rx effect (Lipid: total lipid area subtracted from baseline sFA+TNFa, normalized to nuclei count) ([2]; Donor 1, Rx Conc. 4.000 µM): -0.152
Rx effect (Lipid: total lipid area subtracted from baseline sFA+TNFa, normalized to nuclei count) ([2]; Donor 2, Rx Conc. 0.063 µM): -0.096
Rx effect (Lipid: total lipid area subtracted from baseline sFA+TNFa, normalized to nuclei count) ([2]; Donor 2, Rx Conc. 1.000 µM): -0.164
Rx effect (Lipid: total lipid area subtracted from baseline sFA+TNFa, normalized to nuclei count) ([2]; Donor 2, Rx Conc. 4.000 µM): -0.307
lipid level compared to baseline (sFA+TNFa) [2, 3]: slight reduction in lipid level
lipid level compared to baseline (sFA+TNFa) ([2]; Results 2, donor 2): slight reduction in lipid level
Rx effect (lipid) ([2]; Rx 0.0625 µM): -0.024
Rx effect (lipid) ([2]; Rx 1 µM): -0.156
Rx effect (lipid) ([2]; Rx 4 µM): -0.178
